Reference: article doi:10.1101/2023.04.09.536153v2, “Reinstating targeted protein degradation with DCAF1 PROTACs in CRBN PROTAC resistant settings” (biorxiv, 2023)
Like-named read-outs stand apart in the source and are kept apart here. One block for each compound: values may come before it.

Tests used:
[1] = molecular target: T1, BTK kinase domain (389-659) (Homo sapiens, UniProt Q06187); assay: kinase inhibition, Caliper mobility shift; format: biochemical; conditions: 0.047 mM ATP, 0.002 mM peptide, pH 7.5, 32 °C, 60 min
T1 construct: kinase domain 389-659; His-PreScission (with or without Avi) construct, Sf9 cells
Source text: kinase inhibition, Caliper mobility shift on BTK kinase domain (389-659) | weaker affinity for BTK of the DBt-6 and DBt-8 was additionally corroborated by enzymatic inhibition

BTK-NanoLuc = molecular target: T2, BTK-NanoLuc (Homo sapiens, UniProt Q06187); assay: NanoBRET tracer displacement; format: cell-based; conditions: digitonin-permeabilized cells, 0.5 µM Tracer-05, 2 h; ATP site
T2 construct: full-length BTK fused to NanoLuc (pLenti6 BTK-Nanoluc), transiently expressed in HEK293-A cells

[2] = molecular target: T3, DCAF1(1073-1399)_E1398S (WDR domain, Avi/His-tagged) (Homo sapiens, UniProt Q9Y4B6, E1398S); assay: TR-FRET competition with bodipy ligand; format: binding; conditions: 30 mM phosphate pH 7.4, 140 mM NaCl, 22 °C, no BTK added
T3 construct: WDR (WD40) domain 1073-1399 with E1398S; Avi and His tags (N-terminal Avi, C-terminal His for SPR; C-terminal Avi-His for TR-FRET), biotinylated by BirA; Sf9 cells

[3] = molecular target: T3, DCAF1(1073-1399)_E1398S (WDR domain, Avi/His-tagged); assay: fluorescence polarization; format: binding

T3 sequence (Q9Y4B6 1073-1399 E1398S): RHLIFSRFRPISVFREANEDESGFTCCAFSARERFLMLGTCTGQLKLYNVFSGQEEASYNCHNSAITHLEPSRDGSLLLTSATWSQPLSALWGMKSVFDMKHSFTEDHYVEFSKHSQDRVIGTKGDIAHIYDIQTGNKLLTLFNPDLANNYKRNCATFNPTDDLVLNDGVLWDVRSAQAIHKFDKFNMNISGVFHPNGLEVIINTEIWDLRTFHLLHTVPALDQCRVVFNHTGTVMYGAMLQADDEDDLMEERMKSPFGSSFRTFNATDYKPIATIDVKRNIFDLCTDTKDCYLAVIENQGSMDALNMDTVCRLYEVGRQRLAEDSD
T1 sequence (Q06187 389-659): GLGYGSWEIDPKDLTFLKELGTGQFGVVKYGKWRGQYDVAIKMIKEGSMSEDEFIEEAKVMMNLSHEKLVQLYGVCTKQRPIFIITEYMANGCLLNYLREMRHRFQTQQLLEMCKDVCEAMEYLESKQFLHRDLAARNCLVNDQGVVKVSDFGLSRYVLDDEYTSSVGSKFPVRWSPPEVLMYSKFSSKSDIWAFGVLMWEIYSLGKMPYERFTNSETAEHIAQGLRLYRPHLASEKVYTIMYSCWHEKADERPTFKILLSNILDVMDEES
T2 sequence (Q06187 2-659): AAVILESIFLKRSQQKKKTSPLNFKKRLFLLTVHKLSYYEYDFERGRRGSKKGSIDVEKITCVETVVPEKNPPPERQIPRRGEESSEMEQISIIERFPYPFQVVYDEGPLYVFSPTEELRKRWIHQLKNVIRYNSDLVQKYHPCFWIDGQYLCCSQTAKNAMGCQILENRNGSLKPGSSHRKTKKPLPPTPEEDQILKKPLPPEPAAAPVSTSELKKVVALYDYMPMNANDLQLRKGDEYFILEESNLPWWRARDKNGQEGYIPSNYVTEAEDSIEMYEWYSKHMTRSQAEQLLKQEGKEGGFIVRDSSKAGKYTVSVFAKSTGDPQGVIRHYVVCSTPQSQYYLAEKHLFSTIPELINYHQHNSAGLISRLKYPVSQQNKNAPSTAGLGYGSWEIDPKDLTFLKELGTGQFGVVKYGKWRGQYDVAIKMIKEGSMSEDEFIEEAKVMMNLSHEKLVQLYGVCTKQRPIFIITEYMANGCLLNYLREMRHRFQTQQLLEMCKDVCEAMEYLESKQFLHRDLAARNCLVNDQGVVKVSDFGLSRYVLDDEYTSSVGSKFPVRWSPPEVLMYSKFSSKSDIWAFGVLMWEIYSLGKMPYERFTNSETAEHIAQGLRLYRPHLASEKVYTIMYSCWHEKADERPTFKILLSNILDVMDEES

IC50 [1]: 0.51 µM
IC50 (BTK-NanoLuc): 2.35 µM
IC50 ([2]; read-out: IC50): 0.056 ± 0.037 µM
SMILES: Cc1c(NC(=O)c2ccc(C(C)(C)O)cc2F)cc(F)cc1-c1ncnc2[nH]c(-c3ccc(CNCCOCCOCC(=O)N4CCCC(C(=O)N5CCN(c6ccc7c(NCCN)nc(C8(c9ccc(Cl)cc9)CCCCC8)nc7c6)CC5)C4)cc3)cc12 (centres unmarked) [DBt-6]

Kd [3]: 0.069 ± 0.006 µM
SMILES: Cc1cc(C)n2c1C=C1C=CC(CCC(=O)N3CCN(c4ccc5c(NCCN)nc(C(C)(C)c6ccc(Cl)cc6)nc5c4)CC3)=[N+]1[B-]2(F)F [bodipy labelled ligand]

SMILES: CC(=O)N1CCN(c2ccc3c(NCCN)nc(C4(c5ccc(Cl)cc5)CCCCC4)nc3c2)CC1 [compound 13, VHF543]
IC50 [2]: IC50 determined by DCAF1 TR-FRET for selected DCAF1 binders
